Experimental data taken from patent US12618096B2, “Rapid screen for antibiotic resistance and treatment regimen” (priority 2020, dated 2026).

Tests used:
Format in all cases: cell-based
A. baumannii NCTC 10303 = test: Resistance profile of bacterial strain
P. aeruginosa PAO1 = test: Resistance profile of bacterial strain
A. baumannii NCTC 13302 = test: Resistance profile of bacterial strain
A. baumannii ATCC 17978 = test: Resistance profile of bacterial strain
[1] = tested on: A. baumannii ATCC 17978 ColR; test: Resistance profile of bacterial strain
[2] = tested on: Klebsiella pneumoniae (NCTC 13368); test: Bacterial impedance flow cytometry of antimicrobial peptides; settings: at the concentrations tested
Procedure: The method for determining the efficacy of different membrane penetrating peptide antimicrobials is essentially the same as for Example 1. Briefly, colonies are picked from plate carrying bacteria from a clinical sample (e.g. a urine sample from suspected UTI) into Tryptone soy broth (TSB) and incubated for 30 minutes prior to addition of the membrane penetrating peptide antimicrobial preparation. The incubation is typically carried out at 37° C. with shaking. […] The concentrations are selected to span the minimum inhibitory concentration of the two strains, as might be used clinically for an antimicrobial breakpoint determination. Optionally, the bacterial impedance flow cytometry method may be used to generate a measurement of the minimum inhibitory concentration or a fixed concentration is used on the basis of a resistant/susceptible breakpoint. The sample is incubated at 37° C. for 30 or 60 minutes in a static incubator at 37° C. The population at each timepoint is analysed using bacterial impedance flow cytometry and the data collected and analysed to measure both the viable cell number and any migration of the cell population out of a contour enclosing a percentage of a control or untreated population of the same species.
The bacterial impedance of the population was measured. […]

| Molecule | Resistance profile (A. baumannii NCTC 10303) | Resistance profile (P. aeruginosa PAO1) | Resistance profile (A. baumannii NCTC 13302) | Resistance profile (A. baumannii ATCC 17978) | Resistance profile [1] | Susceptibility of NCTC 13368 relative to NCTC 12923 [2] |
| --- | --- | --- | --- | --- | --- | --- |
| O=C(O)c1cn(C2CC2)c2cc(N3CCNCC3)c(F)cc2c1=O [Ciprofloxacin] | Resistant | Resistant | Resistant | Resistant | Colistin-Resistant Ciprofloxacin-Resistant; | – |
| CC[C@H](C)[C@H](NC(=O)CN)C(=O)NCC(=O)N[C@@H](C)C(=O)N[C@H](C(=O)N[C@@H](CC(C)C)C(=O)N[C@@H](CCCCN)C(=O)N[C@H](C(=O)N[C@@H](CC(C)C)C(=O)N[C@H](C(=O)N[C@H](C(=O)NCC(=O)N[C@@H](CC(C)C)C(=O)N1CCC[C@H]1C(=O)N[C@@H](C)C(=O)N[C@@H](CC(C)C)C(=O)N[C@H](C(=O)N[C@@H](CO)C(=O)N[C@@H](Cc1c[nH]c2ccccc12)C(=O)N[C@H](C(=O)N[C@@H](CCCCN)C(=O)N[C@@H](CCCNC(=N)N)C(=O)N[C@@H](CCCCN)C(=O)N[C@@H](CCCNC(=N)N)C(=O)N[C@@H](CCC(N)=O)C(=O)N[C@@H](CCC(N)=O)C(N)=O)[C@@H](C)CC)[C@@H](C)CC)[C@@H](C)O)[C@@H](C)O)C(C)C)C(C)C [melittin] | – | – | – | – | – | lower susceptibility |
| Colistin | Sensitive | Sensitive | Sensitive | Sensitive | Colistin-Resistant Ciprofloxacin-Resistant; | – |
| Piperacillin/tazobactam | Piperacillin/tazobactam -sensitive | Piperacillin/tazobactam -Sensitive | Piperacillin/tazobactam -Resistant | Piperacillin/tazobactam -Sensitive | Piperacillin/tazobactam -Sensitive | – |
| Gentamicin | resistant | Resistant | Gentamicin- Resistant; Imipenem -Resistant; | Resistant | Resistant | – |
